The assay concerns the target hTDO2 in human glioblastoma A172 cells (Homo sapiens (Human), UniProt P48775). The assay can be described thus: Cellular assay for TDO2 activity determination in A172 cells. The assay is classed as cell-based. The conditions noted are these: overnight incubation, kynurenine absorbance at 480 nm. The protocol: The compounds of formula I inhibit the activity of human TDO2 in cells that constitutively express TDO2, such as A172 cells. A172 is a cell line derived from human brain glioblastoma cells. The cells are available from the American Type Culture Collection (ATCC®) as CRL-1620™.
The assay (adapted from Pilotte L et al., Proc Natl Acad Sci USA, 2012, 109(7), 2497-502) was performed in 96-well flat bottom plates seeded with human glioblastoma A172 cells, naturally expressing hTDO2 (prepared as described in Tilman et al., Mol Cancer, 2007, 17(6), 80), at a concentration of 1.25×10^4 cells/well in a final volume of 200 μL. To determine TDO, the cells were incubated overnight at 37° C. at 5% CO2 in IMDM (Invitrogen) supplemented with 2% FBS and 2% penicillin/streptomycin in the presence of the compounds of the present invention, at different concentrations.
The plates were then centrifuged 5 min at 1000 rpm, and 100 μL of the supernatant were collected in a conical plate, 30 μL of TCA 30% were added and a further centrifuged at 3000×g for 10 minutes. 100 μL of the supernatant were collected in a flat bottomed plate and 100 μL of 2% (w/v) 4-(dimethylamino)-benzaldehyde in acetic acid and incubated for 5 min at room temperature. Kynurenine concentrations were determined by measuring the absorbance at 480 nm. A standard curve was made with pure kynurenine. The TDO activity was measured as described above using ten serial concentrations of the compounds of the present invention. Data were fitted using the Prism™ software (GraphPad Software, Inc.) using standard parameters.
hTDO2 in human glioblastoma A172 cells, sequence (P48775 whole entry): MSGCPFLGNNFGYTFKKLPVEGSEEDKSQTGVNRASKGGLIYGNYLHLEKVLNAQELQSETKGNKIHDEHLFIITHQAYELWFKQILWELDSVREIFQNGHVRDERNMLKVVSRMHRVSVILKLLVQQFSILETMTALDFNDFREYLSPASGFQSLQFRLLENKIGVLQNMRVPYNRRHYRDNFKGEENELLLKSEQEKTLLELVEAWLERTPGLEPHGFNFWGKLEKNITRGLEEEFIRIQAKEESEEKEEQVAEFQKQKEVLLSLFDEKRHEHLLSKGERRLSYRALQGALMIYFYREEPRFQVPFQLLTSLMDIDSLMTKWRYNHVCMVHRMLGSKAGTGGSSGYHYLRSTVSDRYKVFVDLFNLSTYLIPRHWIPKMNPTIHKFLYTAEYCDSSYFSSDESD
Turning to `N[C@H]1CN(C(=O)CCNS(=O)(=O)c2ccc(-c3c[nH]c4cc(F)ccc34)cc2)C[C@H]1F` (single isomer, unassigned) [Example 172, (−)-N-(3-((3S.4R)-3-amino-4-fluoropyrrolidin-1-yl)-3-oxopropyl)-4-(6-fluoro-1H-indol-3-yl)benzenesulfonamide], it took 957 nM to reach half-maximal inhibition (IC50). This counts as sub-micromolar. With `N[C@H]1CN(C(=O)CCNS(=O)(=O)c2ccc(-c3c[nH]c4cc(F)ccc34)cc2)C[C@H]1F` (single isomer, unassigned) [Example 173] the figure was 919 nM; with `C[S+]([O-])CCNS(=O)(=O)c1ccc(-c2c[nH]c3cc(F)ccc23)cc1` (single isomer, unassigned; (+)) [Example 160, (+)-4-(6-fluoro-1H-indol-3-yl)-N-(2-(methylsulfinyl)-ethyl) benzenesulfonamide], 171 nM; with `C[S+]([O-])CCNS(=O)(=O)c1ccc(-c2c[nH]c3cc(F)ccc23)cc1` (single isomer, unassigned; (-)) [Example 159, (−)-4-(6-fluoro-1H-indol-3-yl)-N-(2-(methylsulfinyl)-ethyl)benzenesulfonamide], 220 nM. The figure for `N[C@H]1CN(S(=O)(=O)c2ccc(-c3c[nH]c4cc(F)ccc34)cc2)C[C@H]1F` (stereo in doubt) [Example 81, (+)-(cis)-4-fluoro-1-{[4-(6-fluoro-1H-indol-3-yl)phenyl]-sulfonyl}pyrrolidin-3-amine] is 230 nM; for `C[C@@H]1CN(S(=O)(=O)c2ccc(-c3c[nH]c4cc(F)ccc34)cc2)C[C@H](C)N1` [Example 11, 3-(4-(((cis)-3,5-dimethylpiperazin-1-yl)sulfonyl)phenyl)-6-fluoro-1H-indole] it is 320 nM. The figure for `O=S(=O)(c1ccc(-c2c[nH]c3cc(F)ccc23)cc1)N1CCNC(CO)C1` (stereo not drawn) [Example 12, (4-((4-(6-fluoro-1H-indol-3-yl)phenyl)sulfonyl)piperazin-2-yl)-methanol] is 140 nM.

On to `O=S(=O)(c1ccc(-c2c[nH]c3cc(F)ccc23)cc1)N1CCNCC1CO` (stereo not drawn) [Example 13, (1-((4-(6-fluoro-1H-indol-3-yl)phenyl)sulfonyl)piperazin-2-yl)methanol], for which the IC50 (as a rule, the concentration at which inhibition is half-maximal) came to 210 nM.

`C[C@@H]1CN(S(=O)(=O)c2ccc(-c3c[nH]c4cc(F)ccc34)cc2)C[C@@H](C)N1` [Example 14, (3R,5R)-3-[4-(3,5-dimethyl-piperazine-1-sulfonyl)-phenyl]-6-fluoro-1H-indole] displayed an IC50 of 190 nM. The figure for `C[C@H]1CN(S(=O)(=O)c2ccc(-c3c[nH]c4cc(F)ccc34)cc2)C[C@H](C)N1` [Example 15, 3-(4-(((3S,5S)-3,5-dimethylpiperazin-1-yl)sulfonyl)phenyl)-6-fluoro-1H-indole] is 220 nM; for `O=S(=O)(c1ccc(-c2c[nH]c3cc(F)ccc23)cc1)N1CCN[C@@H](CO)C1` [Example 17, (R)-(4-((4-(6-fluoro-1H-indol-3-yl)phenyl)sulfonyl)piperazin-2-yl)methanol] it is 200 nM; for `CS(=O)(=O)N1CCN(S(=O)(=O)c2ccc(-c3c[nH]c4cc(F)ccc34)cc2)CC1` [Example 19, 6-fluoro-3-(4-((4-(methylsulfonyl)piperazin-1-yl)sulfonyl)phenyl)-1H-indole] it is 1000 nM.

`O=S(=O)(c1ccc(-c2c[nH]c3ccccc23)cc1)N1CCNCC1` [Example 20, 3-(4-(piperazin-1-ylsulfonyl)phenyl)-1H-indole] had an IC50 of 250 nM. Consider `O=S(=O)(c1ccc(-c2c[nH]c3cc(F)ccc23)c(F)c1)N1CCNCC1` [Example 22, 6-fluoro-3-(2-fluoro-4-(piperazin-1-ylsulfonyl)-phenyl)-1H-indole], for which the half-maximal inhibitory concentration (IC50) came out at 600 nM.

The molecule `O=S(=O)(c1cc(-c2c[nH]c3cc(F)ccc23)ccc1Cl)N1CCNCC1` [Example 23, 3-(4-chloro-3-(piperazin-1-ylsulfonyl)phenyl)-6-fluoro-1H-indole] registered an IC50 of 630 nM.

The values above are taken from patent US10544095B2 (Pfizer Inc., priority 2015, dated 2020).
